Structures are written as SMILES. pIC50: −log10 of the molar value.

The test deals with Tie-2 (Homo sapiens, UniProt Q02763). In words: Tie-2 tyrosine kinase activity: kinase-dependent ATP consumption (pEY substrate, luciferase/luciferin chemiluminescence) or 33P-ATP incorporation into substrate. The format is biochemical. The note with it: Tie-2 (human enzyme) inhibition, Table 2, class symbols A-D. Put shortly: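 Values are IC50 categories: A below 50 nM, B above 50 to 1000 nM, C above 1000 to below 10,000 nM, D 10,000 nM or more. They were measured by 33P-ATP phosphate transfer onto a generic substrate bound to the plate (scintillation), or by luminescent luciferase detection of ATP used with pEY.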
Chain of Tie-2 (Q02763 23-1124): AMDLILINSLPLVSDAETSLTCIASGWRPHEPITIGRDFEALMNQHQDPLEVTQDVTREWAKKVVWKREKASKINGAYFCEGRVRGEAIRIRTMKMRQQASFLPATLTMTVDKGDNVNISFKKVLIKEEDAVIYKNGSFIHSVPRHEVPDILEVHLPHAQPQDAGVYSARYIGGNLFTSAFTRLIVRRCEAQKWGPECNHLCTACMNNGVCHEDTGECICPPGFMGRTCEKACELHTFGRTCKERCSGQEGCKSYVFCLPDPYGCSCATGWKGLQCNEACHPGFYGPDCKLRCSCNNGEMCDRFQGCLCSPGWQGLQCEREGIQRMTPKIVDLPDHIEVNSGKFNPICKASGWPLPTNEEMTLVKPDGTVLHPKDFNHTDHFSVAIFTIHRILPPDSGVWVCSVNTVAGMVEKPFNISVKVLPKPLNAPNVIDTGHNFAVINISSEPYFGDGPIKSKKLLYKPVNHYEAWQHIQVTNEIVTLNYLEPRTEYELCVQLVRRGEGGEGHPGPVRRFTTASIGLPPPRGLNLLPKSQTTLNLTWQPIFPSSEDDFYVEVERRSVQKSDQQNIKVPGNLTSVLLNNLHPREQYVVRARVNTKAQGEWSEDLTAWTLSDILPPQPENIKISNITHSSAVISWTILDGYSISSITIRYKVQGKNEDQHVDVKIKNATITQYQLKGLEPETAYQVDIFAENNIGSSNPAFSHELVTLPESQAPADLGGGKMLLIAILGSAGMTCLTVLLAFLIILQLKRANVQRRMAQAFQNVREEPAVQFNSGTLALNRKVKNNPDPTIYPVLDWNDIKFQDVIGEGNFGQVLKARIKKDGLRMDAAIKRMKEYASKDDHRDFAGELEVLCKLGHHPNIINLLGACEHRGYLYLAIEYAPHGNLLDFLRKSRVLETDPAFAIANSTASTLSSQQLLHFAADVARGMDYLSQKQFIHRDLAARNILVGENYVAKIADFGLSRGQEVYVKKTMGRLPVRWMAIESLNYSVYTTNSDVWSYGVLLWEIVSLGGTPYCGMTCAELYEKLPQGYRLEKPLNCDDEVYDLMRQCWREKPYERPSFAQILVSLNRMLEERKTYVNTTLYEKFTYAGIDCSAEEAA
With `Cc1nc(-c2ccnc(NCc3ccccc3)n2)nn1CCN(C(=O)Cc1cccc2ccccc12)C1CCCC1` [Entry 184, N-cyclopentyl-N-[2-(5-methyl-3-{2-[(phenylmethyl)amino]pyrimidin-4-yl}-1H-1,2,4-triazol-1-yl)ethyl]-2-naphthalen-1-ylacetamide], the pIC50 is 6.00 to 7.30.

Take `Cc1nc(-c2cc(N)nc(Cl)c2)nn1CCN(C(=O)Cc1cccc2ccccc12)C1CCCC1` [Entry 185, N-{2-[3-(2-amino-6-chloropyridin-4-yl)-5-methyl-1H-1,2,4-triazol-1-yl]ethyl}-N-cyclopentyl-2-naphthalen-1-ylacetamide]: the pIC50 is 6.00 to 7.30.

As for `Cc1nc(-c2cc(N)nc(N)c2)nn1CCN(C(=O)Cc1cccc2ccccc12)C1CCCC1` [Entry 186, N-cyclopentyl-N-{2-[3-(2,6-diaminopyridin-4-yl)-5-methyl-1H-1,2,4-triazol-1-yl]ethyl}-2-naphthalen-1-ylacetamide], the pIC50 was 6.00 to 7.30.

In turn, `CCOc1cc(-c2nc(C)n(CCN(C(=O)Cc3cccc4ccccc34)C3CCCC3)n2)cc(N)n1` [Entry 187, N-(2-{3-[2-amino-6-(ethyloxy)pyridin-4-yl]-5-methyl-1H-1,2,4-triazol-1-yl}ethyl)-N-cyclopentyl-2-naphthalen-1-ylacetamide] had a negative logarithm of the IC50 (pIC50) of 5.00 to 6.00.

As usually defined, the pIC50 is the negative decadic logarithm of the IC50, by convention in mol/L.

These data come from US8178570B2, “Tie-2 modulators and methods of use” (Exelixis, Inc., priority 2003, dated 2012).
